The text below walks through data of PubChem BioAssay AID324 (DTP/NCI, 2004).

For this test, the system named is CD2F1 mice, AMSA-resistant P388 leukemia ip, median survival T/C. Briefly: NCI In Vivo Anticancer Drug Screen. Data for tumor model P388 Leukemia resistant to AMSA; NSC 249992 (intraperitoneal) in CD2F1 (CDF1) mice. The note with it: endpoint: median survival time, higher = longer survival. The procedure: The antitumor activity of compounds was measured in mice bearing transplantable tumors. Survival or tumor size were measured and the results are expressed as the measurement made in the treated group (T) divided by the measurement made in the vehicle treated control group (C). The tumor model used in this assay is P388 Leukemia resistant to AMSA; NSC 249992 (intraperitoneal) in CD2F1 (CDF1) mice

Structures are written as SMILES. “And” between values parts separate entries of the source, which are not always exact repeats. Equal values may be shown once. Inconclusive results and toxic doses are left out. Starred links: 1 amine or outer side, 2 acyl side, 3 side chain; linkers in the order of their positions; H or OH if unused. Positions of bridges follow the written chain, without caps; N, C: chain ends. Non-standard residues stand in square brackets, D forms with d. Residues, ends and D or L forms follow the SMILES beside them. Chains are numbered I, II in the order given. Actinocin(9to1) = Cc1c2oc3c(C)ccc(C(=O)[*:1])c3nc-2c(C(=O)[*:2])c(N)c1=O; aThr = C[C@H](O)[C@H](N)C(=O)O; NMeV = CN[C@H](C(=O)O)C(C)C; Sar = CNCC(=O)O

Turning to `O=P1(N(CCCl)CCCl)NCCCO1` (stereo not given), the T/C runs as follows: (dose: 16.2 mg/kg/injection, schedule: Q04DX003 (ip), vehicle: saline) 196 % of control; (dose: 25.9 mg/kg/injection, schedule: Q04DX002 (ip), vehicle: saline) 220 % of control; (dose: 27.0 mg/kg/injection, schedule: Q04DX003 (ip), vehicle: saline) 240 % of control; (dose: 32.4 mg/kg/injection, schedule: Q04DX002 (ip), vehicle: saline) 243 % of control; (dose: 43.2 mg/kg/injection, schedule: Q04DX002 (ip), vehicle: saline) 333 % of control; (dose: 45.0 mg/kg/injection, schedule: Q04DX003 (ip), vehicle: saline) 348 % of control. Besides, the T/C by setting is: (dose: 54.0 mg/kg/injection, schedule: Q04DX002 (ip), vehicle: saline) 305 % of control; (dose: 72.0 mg/kg/injection, schedule: Q04DX002 (ip), vehicle: saline) 407 % of control; (dose: 75.0 mg/kg/injection, schedule: Q04DX003 (ip), vehicle: saline) 348 % of control; (dose: 90.0 mg/kg/injection, schedule: Q04DX002 (ip), vehicle: saline) 416 % of control; (dose: 120.0 mg/kg/injection, schedule: Q04DX002 (ip), vehicle: saline) 416 % of control; (dose: 125.0 mg/kg/injection, schedule: Q04DX003 (ip), vehicle: saline) 348 % of control. For the same molecule, the T/C reads like this: (dose: 150.0 mg/kg/injection, schedule: Q04DX002 (ip), vehicle: saline) 416 % of control; (dose: 200.0 mg/kg/injection, schedule: Q04DX002 (ip), vehicle: saline) 164 % of control.

On to `COc1cc2c[n+](C)c3c4cc5c(cc4ccc3c2cc1OC)OCO5`, for which the T/C (dose: 25.92 mg/kg/injection, schedule: Q04DX003 (ip), vehicle: distilled water + Tween-80) is 118 % of control; the T/C (dose: 43.2 mg/kg/injection, schedule: Q04DX003 (ip), vehicle: distilled water + Tween-80) was 123 % of control; the T/C (dose: 120.0 mg/kg/injection, schedule: Q04DX003 (ip), vehicle: distilled water + Tween-80) was 115 % of control.

Regarding `COc1cc2cc3c4cc(OC)c(OC)cc4cc[n+]3c(C)c2cc1OC` (tested in a mixture with another compound), the T/C was 110 % of control (dose: 25.9 mg/kg/injection, schedule: Q04DX003 (ip), vehicle: water) and 116 % of control (dose: 43.2 mg/kg/injection, schedule: Q04DX003 (ip), vehicle: water).

Take `COC(=O)C[C@](O)(CCCC(C)(C)O)C(=O)O[C@@H]1C(OC)=C[C@]23CCCN2CCc2cc4c(cc2[C@H]13)OCO4`: the T/C (dose: 1.8 mg/kg/injection, schedule: Q04DX003 (ip), vehicle: saline + alcohol) was 153 % of control and the T/C (dose: 3.0 mg/kg/injection, schedule: Q04DX003 (ip), vehicle: saline + alcohol) was 163 % of control.

With `NC(=O)c1csc(C2OC(CO)C(O)C2O)n1` (stereo not given), the T/C was 188 % of control (dose: 330.0 mg/kg/injection, schedule: Q01DX009 (ip), vehicle: water) and 88 % of control (dose: 500.0 mg/kg/injection, schedule: Q01DX009 (ip), vehicle: water).

Consider `C(=N/NC1=NCCN1)/c1c2ccccc2c(/C=N\NC2=NCCN2)c2ccccc12`, for which the T/C was 121 % of control (dose: 5.18 mg/kg/injection, schedule: Q04DX002 (ip), vehicle: saline); 123 % of control (dose: 14.4 mg/kg/injection, schedule: Q04DX002 (ip), vehicle: saline); 123 % of control (dose: 40.0 mg/kg/injection, schedule: Q04DX002 (ip), vehicle: saline).

`CCC1(O)CC2CN(CCc3c([nH]c4ccccc34)C(C(=O)OC)(c3cc4c(cc3OC)N(C)C3C(O)(C(N)=O)C(O)C5(CC)C=CCN6CCC43C65)C2)C1` (stereo not given) (tested in a mixture with another compound): the T/C by setting is: (dose: 0.5 mg/kg/injection, schedule: Q04DX003 (ip), vehicle: clinical formulation) 150 % of control; (dose: 0.83 mg/kg/injection, schedule: Q04DX003 (ip), vehicle: clinical formulation) 162 % of control.

With `COc1cccc2c1C(=O)c1c(O)c3c(c(O)c1C2=O)C[C@@](O)(C(=O)CO)C[C@@H]3OC1CC([N+](C)(C)C)C(O)C(C)O1` (stereo not given in full), the T/C by setting is: (dose: 3.89 mg/kg/injection, schedule: Q04DX003 (ip), vehicle: water) 103 % of control; (dose: 6.48 mg/kg/injection, schedule: Q04DX003 (ip), vehicle: water) 111 % of control; (dose: 10.8 mg/kg/injection, schedule: Q04DX003 (ip), vehicle: water) 107 % of control; (dose: 18.0 mg/kg/injection, schedule: Q04DX003 (ip), vehicle: water) 108 % of control; (dose: 30.0 mg/kg/injection, schedule: Q04DX003 (ip), vehicle: water) 100 % of control.

As to `Cc1c2oc3c(C)ccc(C(=O)N[C@@H]4C(=O)N[C@H](C(C)C)C(=O)N5CCC[C@H]5C(=O)N(C)CC(=O)N(C)[C@@H](C(C)C)C(=O)O[C@H]4C)c3nc-2c(C(=O)N[C@@H]2C(=O)N[C@H](C(C)C)C(=O)N3CCC[C@H]3C(=O)N(C)CC(=O)N(C)[C@@H](C(C)C)C(=O)O[C@H]2C)c(N)c1=O` (I: [aThr][dV]P[Sar][NMeV] / II: [aThr][dV]P[Sar][NMeV]; ester I:1-I:C, II:1-II:C; linker I:N-II:N via Actinocin(9to1)), the T/C is 171 % of control (dose: 0.08 mg/kg/injection, schedule: Q04DX003 (ip), vehicle: saline + alcohol); 223 % of control (dose: 0.13 mg/kg/injection, schedule: Q04DX003 (ip), vehicle: saline + alcohol); 155 % of control (dose: 0.18 mg/kg/injection, schedule: Q04DX003 (ip), vehicle: saline + alcohol); 176 % of control (dose: 0.3 mg/kg/injection, schedule: Q04DX003 (ip), vehicle: saline + alcohol); 219 % of control (dose: 0.5 mg/kg/injection, schedule: Q04DX003 (ip), vehicle: saline + alcohol).

For the molecule `NCCCCS(=O)(=O)Nc1ccc(Nc2c3ccccc3nc3cc([N+](=O)[O-])ccc23)cc1`, the T/C (dose: 38.9 mg/kg/injection, schedule: Q04DX003 (ip), vehicle: water) was 93 % of control; the T/C (dose: 64.8 mg/kg/injection, schedule: Q04DX003 (ip), vehicle: water) is 93 % of control; the T/C (dose: 108.0 mg/kg/injection, schedule: Q04DX003 (ip), vehicle: water) was 95 % of control.

Consider `COc1cc([C@@H]2c3cc4c(cc3[C@@H](OC3OC5CO[C@@H](c6cccs6)OC5C(O)C3O)[C@H]3COC(=O)[C@H]23)OCO4)cc(OC)c1O` (stereo not given in full), for which the T/C (dose: 25.0 mg/kg/injection, schedule: Q04DX003 (ip), vehicle: clinical formulation) was 90 % of control.

Take `O=NN(CCCl)C(=O)NCCCl`: the T/C was 164 % of control (dose: 3.89 mg/kg/injection, schedule: Q04DX003 (ip), vehicle: saline + alcohol); 222 % of control (dose: 6.48 mg/kg/injection, schedule: Q04DX003 (ip), vehicle: saline + alcohol); 267 % of control (dose: 10.8 mg/kg/injection, schedule: Q04DX003 (ip), vehicle: saline + alcohol); 387 % of control (dose: 18.0 mg/kg/injection, schedule: Q04DX003 (ip), vehicle: saline + alcohol); 115 % of control (dose: 30.0 mg/kg/injection, schedule: Q04DX003 (ip), vehicle: saline + alcohol).

`O=C1c2c(O)ccc(O)c2C(=O)c2c(NCCNCCO)ccc(NCCNCCO)c21`: the T/C (dose: 1.3 mg/kg/injection, schedule: Q04DX002 (ip), vehicle: water) is 110 % of control; the T/C (dose: 3.6 mg/kg/injection, schedule: Q04DX003 (ip), vehicle: saline) was 157 % of control; the T/C (dose: 6.0 mg/kg/injection, schedule: Q04DX002 (ip), vehicle: water) was 96 % of control; the T/C (dose: 6.0 mg/kg/injection, schedule: Q04DX003 (ip), vehicle: saline) was 96 % of control and 123 % of control; the T/C (dose: 10.0 mg/kg/injection, schedule: Q04DX002 (ip), vehicle: water) is 89 % of control.

`CC[C@]1(O)C[C@H]2CN(CCc3c([nH]c4ccccc34)[C@@](C(=O)OC)(c3cc4c(cc3OC)N(C=O)[C@H]3[C@@](O)(C(=O)OC)[C@H](OC(C)=O)[C@]5(CC)C=CCN6CC[C@]43[C@@H]65)C2)C1`: the T/C (dose: 0.72 mg/kg/injection, schedule: Q04DX003 (ip), vehicle: saline) was 176 % of control; the T/C (dose: 1.0 mg/kg/injection, schedule: Q04DX003 (ip), vehicle: saline) is 102 % of control; the T/C (dose: 1.2 mg/kg/injection, schedule: Q04DX003 (ip), vehicle: saline) is 201 % of control; the T/C (dose: 2.0 mg/kg/injection, schedule: Q04DX003 (ip), vehicle: saline) is 193 % of control.

Consider `CC1OC(OC2CC(O)(C(=O)CO)Cc3c(O)c4c(c(O)c32)C(=O)c2ccccc2C4=O)CC(N)C1O` (stereo not given), for which the T/C (dose: 0.13 mg/kg/injection, schedule: Q04DX003 (ip), vehicle: water) is 114 % of control; the T/C (dose: 0.21 mg/kg/injection, schedule: Q04DX003 (ip), vehicle: water) is 115 % of control; the T/C (dose: 0.6 mg/kg/injection, schedule: Q04DX003 (ip), vehicle: water) was 117 % of control; the T/C (dose: 1.0 mg/kg/injection, schedule: Q04DX003 (ip), vehicle: water) was 123 % of control.
